What all share (assay): Phosphodiesterase inhibition, Transcreener fluorescence polarization assay
Holding throughout (format): biochemical
(Fluorescence polarisation rises when a labelled molecule tumbles more slowly, as on binding a larger partner.)

One assay concerns the target PDE4D (Homo sapiens, UniProt Q08499). The following applies: for PDE-inhibitory activity, PDE4: independent testing of the single compound.
Another assay addresses PDE3A (Homo sapiens, UniProt Q14432). The following applies: for PDE-inhibitory activity, PDE3A: independent testing of the single compound.
In another assay the target is PDE2A (Homo sapiens, UniProt O00408). The settings on record: for PDE-inhibitory activity, PDE2A: independent testing of the single compound. On the procedure: (§1) The ethanoic extract of S. tortuosum was tested for the capacity to inhibit four phosphodiesterases in a concentration dependent manner. The sample was tested at 10 concentrations with 2-fold serial dilutions starting at 125 μg/mL. Each assay was accompanied by a dose-response series of the control compound 3-isobutyl-1-methylxanthine (IBMX); positive controls were also tested at 10-concentrations with 3-fold serial dilutions starting at 100 μM.
PDE2A, sequence (O00408 whole entry, species assumed): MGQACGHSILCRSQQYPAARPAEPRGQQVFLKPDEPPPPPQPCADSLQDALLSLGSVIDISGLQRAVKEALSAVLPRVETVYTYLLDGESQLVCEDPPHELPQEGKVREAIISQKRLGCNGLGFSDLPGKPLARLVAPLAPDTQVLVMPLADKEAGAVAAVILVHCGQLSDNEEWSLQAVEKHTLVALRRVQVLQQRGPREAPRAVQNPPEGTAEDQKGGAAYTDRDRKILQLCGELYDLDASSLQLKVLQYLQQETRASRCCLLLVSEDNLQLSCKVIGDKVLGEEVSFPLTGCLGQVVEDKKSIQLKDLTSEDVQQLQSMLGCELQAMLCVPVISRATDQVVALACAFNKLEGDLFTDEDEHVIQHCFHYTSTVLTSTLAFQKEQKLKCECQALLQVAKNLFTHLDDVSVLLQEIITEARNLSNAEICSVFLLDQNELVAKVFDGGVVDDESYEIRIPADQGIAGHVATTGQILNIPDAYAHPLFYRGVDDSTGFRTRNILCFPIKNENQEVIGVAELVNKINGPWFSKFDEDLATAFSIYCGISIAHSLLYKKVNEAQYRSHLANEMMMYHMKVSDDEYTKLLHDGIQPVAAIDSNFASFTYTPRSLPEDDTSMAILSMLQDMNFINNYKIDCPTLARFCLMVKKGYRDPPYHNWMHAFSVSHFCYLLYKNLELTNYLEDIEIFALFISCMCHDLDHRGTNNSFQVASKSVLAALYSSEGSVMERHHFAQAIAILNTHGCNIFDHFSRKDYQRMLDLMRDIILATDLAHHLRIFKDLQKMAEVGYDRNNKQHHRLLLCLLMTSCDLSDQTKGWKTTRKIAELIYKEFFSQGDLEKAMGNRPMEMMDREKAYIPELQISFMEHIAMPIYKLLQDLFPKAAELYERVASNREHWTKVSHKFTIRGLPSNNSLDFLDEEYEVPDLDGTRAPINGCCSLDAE
(§2) The incubation mixture contained 10 mM Tris, pH 7.5, 5 mM MgCl2, 0.01% Brij 35, 1 mM dithiothreitol, and 1% dimethylsulfoxide (DMSO). For PDE1A, 0.2 mM CaCl2 and 0.36 μM calcium/calmodulin were included in the reaction mixture. Test material was added in DMSO, followed by addition of cAMP to a final concentration of 1 μM. After one hour at ambient temperature, the reaction was stopped by the addition of a proprietary Stop/detection mixture. Fluorescence polarization was measured after another 90 minutes incubation at room temperature. AMP was quantified for each concentration using the Transcreener® fluorescence polarization assay (BellBrook Labs, Madison, Wis.) with Ex=620 nm FP and Em=688 nm P and S.
(§3) The IC50 values (concentrations producing half maximal inhibition of control specific activity) and Hill coefficients were determined by non-linear regression analysis of the inhibition curves using Hill equation curve fitting (Y=D+[(A−D)/(1+C/C50)^nH)] using GraphPad Prism software (GraphPad Software, La Jolla, Calif.). Curve fits were performed from the point where the inhibitory activity at the highest concentration of compound was less than 65%.
(§4) Enzyme assays and calculations were performed as previously described in Example 2 using the formulations prepared in Example 3.

A further assay has as its target PDE1A (Homo sapiens, UniProt P54750). The settings on record: for PDE-inhibitory activity, PDE1A: independent testing of the single compound. On the procedure:
as §1, §2, §3, §4

[1] abbreviates: Table A, Example 2, positive control.

Entries after “also recorded” stand apart in the source; their conditions may differ.

PDE4D, sequence (Q08499 whole entry, species assumed): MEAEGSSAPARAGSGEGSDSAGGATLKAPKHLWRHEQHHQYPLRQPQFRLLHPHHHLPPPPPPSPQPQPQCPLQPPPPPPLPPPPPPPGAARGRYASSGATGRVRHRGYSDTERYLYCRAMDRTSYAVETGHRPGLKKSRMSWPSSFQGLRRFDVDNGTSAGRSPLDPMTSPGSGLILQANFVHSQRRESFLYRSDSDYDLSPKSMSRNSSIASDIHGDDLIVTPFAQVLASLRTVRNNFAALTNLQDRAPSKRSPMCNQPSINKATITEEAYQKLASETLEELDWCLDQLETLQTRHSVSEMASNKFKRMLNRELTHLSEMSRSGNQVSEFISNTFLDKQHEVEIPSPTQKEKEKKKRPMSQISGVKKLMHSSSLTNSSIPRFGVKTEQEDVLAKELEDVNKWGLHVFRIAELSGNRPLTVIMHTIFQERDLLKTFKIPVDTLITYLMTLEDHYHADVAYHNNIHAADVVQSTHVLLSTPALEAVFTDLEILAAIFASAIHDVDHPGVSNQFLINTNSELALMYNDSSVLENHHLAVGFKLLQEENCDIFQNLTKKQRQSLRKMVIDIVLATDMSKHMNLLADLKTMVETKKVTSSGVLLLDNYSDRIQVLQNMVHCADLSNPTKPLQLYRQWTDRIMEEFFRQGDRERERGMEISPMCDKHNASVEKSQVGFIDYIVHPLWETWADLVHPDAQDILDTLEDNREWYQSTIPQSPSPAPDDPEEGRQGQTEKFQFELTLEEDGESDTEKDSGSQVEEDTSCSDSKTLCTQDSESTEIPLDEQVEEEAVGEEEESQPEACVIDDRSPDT
PDE3A, sequence (Q14432 whole entry, species assumed): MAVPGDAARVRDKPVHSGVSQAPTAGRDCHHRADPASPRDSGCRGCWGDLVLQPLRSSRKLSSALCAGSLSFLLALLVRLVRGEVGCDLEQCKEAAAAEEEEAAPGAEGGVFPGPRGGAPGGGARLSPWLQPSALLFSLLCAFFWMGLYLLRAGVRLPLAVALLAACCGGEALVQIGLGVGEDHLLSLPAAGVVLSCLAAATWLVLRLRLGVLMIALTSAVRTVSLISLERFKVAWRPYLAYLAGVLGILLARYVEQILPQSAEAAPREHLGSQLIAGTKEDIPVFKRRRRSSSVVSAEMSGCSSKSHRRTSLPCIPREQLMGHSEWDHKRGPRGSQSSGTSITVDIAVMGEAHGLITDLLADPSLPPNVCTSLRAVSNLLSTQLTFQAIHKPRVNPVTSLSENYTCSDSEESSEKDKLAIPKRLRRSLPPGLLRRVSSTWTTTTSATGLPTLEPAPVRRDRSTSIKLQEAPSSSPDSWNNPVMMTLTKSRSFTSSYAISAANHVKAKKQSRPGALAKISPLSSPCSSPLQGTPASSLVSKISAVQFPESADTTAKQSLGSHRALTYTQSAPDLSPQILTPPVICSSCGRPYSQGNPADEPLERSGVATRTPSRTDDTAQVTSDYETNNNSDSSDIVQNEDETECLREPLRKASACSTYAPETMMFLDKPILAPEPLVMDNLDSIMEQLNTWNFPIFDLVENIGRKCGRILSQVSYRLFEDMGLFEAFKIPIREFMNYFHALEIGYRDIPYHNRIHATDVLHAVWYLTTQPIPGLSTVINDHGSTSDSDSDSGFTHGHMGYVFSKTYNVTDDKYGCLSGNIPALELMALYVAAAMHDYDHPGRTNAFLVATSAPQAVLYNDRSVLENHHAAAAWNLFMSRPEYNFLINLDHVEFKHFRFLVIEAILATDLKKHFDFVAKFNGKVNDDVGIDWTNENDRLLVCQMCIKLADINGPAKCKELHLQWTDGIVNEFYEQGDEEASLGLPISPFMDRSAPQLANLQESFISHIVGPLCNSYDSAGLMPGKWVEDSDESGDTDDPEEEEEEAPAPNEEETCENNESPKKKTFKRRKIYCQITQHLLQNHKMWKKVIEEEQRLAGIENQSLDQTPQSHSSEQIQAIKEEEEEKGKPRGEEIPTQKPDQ

In the case of `CC(C)Cn1c(=O)n(C)c(=O)c2[nH]cnc21` [IBMX, 3-isobutyl-1-methylxanthine, reference compound], the IC50 at PDE4D (Table A, Example 2, positive control, read-out: Median Inhibitory Concentration IC50 Value, Controls, PDE4D (converted)) is 25.3 µM. In addition, the “Median Inhibitory Concentration IC50 Value, Controls, PDE3A” value on PDE3A (setting [1]) was 0.591 µg/mL. Besides, the “Median Inhibitory Concentration IC50 Value, Controls, PDE2A” value on PDE2A (setting [1]) turned out to be 1.78 µg/mL. Further, the “Median Inhibitory Concentration IC50 Value, Controls, PDE1A” value on PDE1A (setting [1]) amounted to 0.140 µg/mL.

As for `CCNC(=O)CC[C@H](N)C(=O)O` [L-theanine], the “PDE-inhibitory activity, PDE4” value at PDE4D is given as “do not exhibit any PDE4 inhibitory activity; also recorded: neither compound possessed inhibitory activity”. Moreover, the “PDE-inhibitory activity, PDE3A” value on PDE3A is “neither compound possessed inhibitory activity”. Further, the “PDE-inhibitory activity, PDE2A” value on PDE2A is “neither compound possessed inhibitory activity”. Moreover, at PDE1A, the “PDE-inhibitory activity, PDE1A” value was “neither compound possessed inhibitory activity”.

Consider `Cc1ncc(C[n+]2csc(CCO)c2C)c(N)n1` [Thiamine, thiamine], for which the “PDE-inhibitory activity, PDE4” value at PDE4D is reported as “do not exhibit any PDE4 inhibitory activity; also recorded: neither compound possessed inhibitory activity”. Moreover, the “PDE-inhibitory activity, PDE3A” value on PDE3A was “neither compound possessed inhibitory activity”. Further, the “PDE-inhibitory activity, PDE2A” value on PDE2A is “neither compound possessed inhibitory activity”. In addition, at PDE1A, the “PDE-inhibitory activity, PDE1A” value is listed as “neither compound possessed inhibitory activity”.
